According to PMC13144739, “Global analysis of cancer cell responses to USP9X inhibition” (The EMBO Journal, 2026):

Experiments:
[1] = target: T1, USP9X Δβ (USP9X β-hairpin deletion) (Homo sapiens, UniProt Q93008, DEL1924-1943); experiment: Ub-Rho cleavage assay, USP9X Δβ variant; type: biochemical
T1 construct: His/SUMO (pOPIN-S vector) (N, cleaved yes); made in house; host or cells: E. coli BL21
Excerpt: An expression construct for the USP9X catalytic domain (aa 1551–1970, […]: Q93008-1), was codon optimised for bacterial expression, synthesised in gBlock format (Integrated DNA Technologies) and cloned into the pOPIN-S vector (Berrow et al, [2007]), which was digested with KpnI and HindIII using In-Fusion™ HD cloning (Takara Clontech). […] For the USP9X Δβ catalytic domain a deletion construct ΔE1924-K1943 and for USP9X/USP24 chimera, a construct with USP9X Y1757-A1766 replaced with the USP24 (NCBI Reference Sequence: NP_056121) aa motif […] was used. All constructs were confirmed by Sanger sequencing (AGRF).
The reaction was stopped through the addition of 10 mM citric acid. The assay was performed in 384-well format with a total reaction volume of 16 µL. Data was collected using the ClarioSTAR plate reader (BMG Labtech) at an emission of 535 nm. […] IC50 values presented in our study are the mean of three independent biological repeats unless indicated otherwise.

[2] = test system: T2, USP9X; experiment: DUB IP-MS in MCF-7 cell lysates, USP9X; type: biochemical, human; settings: 50 µM
T2 construct: endogenous in cells; host or cells: MCF-7 cell lysate
Experimental: MCF-7 cells have been profiled for active DUBs previously (Pinto-Fernández et al, [2019]). Lysates were generated as described by others (Turnbull et al, [2017]) using 30 s freeze-thaw cycles (thrice) in lysis buffer (50 mM Tris [pH 7.4], 5 mM MgCl2 × 6 H2O, 0.5 mM EDTA [pH 8.0], 250 mM sucrose and 1 mM DTT) at pH 7.5. […] A pre-treatment of cell lysates with 0.5 µg Ub-VS was included for a baseline DUB response to the Ub-VS probe. 0.1 µg 3X-FLAG-Ub-VS probe was added to samples and incubated for 5 min at 37 °C. […] Samples were washed thrice with lysis buffer and eluted from the resin with lysis buffer supplemented with 1% (w/v) SDS following a 10 min incubation. Two consecutive elutions were pooled, and samples were stored at −80 °C until processing.
DNA was hydrolysed with the addition of 2 µL neat TFA, and lysates were neutralised to pH 8.5 by the addition of 1 M Tris-HCl as previously described (Dagley et al, [2019]). Protein concentration was determined using Pierce™ BCA Protein Assay Kit (Thermo Fisher Scientific) following the manufacturer’s instructions. For DUB IP-MS, samples were processed using S-Trap spin columns (Profiti) by following the manufacturer’s instructions. […]

[3] = test system: MOLT-4 cells; experiment: NCI-60 cancer cell panel, MOLT-4; type: cell-based, human; settings: 10 µM, 3 days
Experimental: (§1) Inhibitors were tested at 10 µM. Data shown is the mean of two technical replicates and is shown relative to the no-drug control, and relative to the time zero number of cells.

[4] = test system: lymphoma line SR; experiment: NCI-60 cancer cell panel, SR; type: cell-based, human; settings: 10 µM, 3 days
Experimental: as §1

[5] = test system: HUVECs; experiment: IncuCyte live-cell imaging, HUVEC; type: cell-based
Experimental: Cells were seeded at varying densities (1000–8000 cells per well) after initial optimisation in a 96-well tissue culture-treated plate (Thermo Fisher Scientific). Cells were incubated o/n, and the next day, inhibitors and controls diluted in cell media were added to the cells to a final volume of 200 μL per well. Cell death was measured using PI (Sigma-Aldrich). Cells were imaged with four images per well every 2 h for up to 96 h using the IncuCyte live-cell analysis system (S3, Sartorius). Cell proliferation data were analysed using Microsoft Excel by normalising confluence to control conditions. For cell killing readouts, the number of PI-positive cells was normalised to the control conditions for each timepoint.

[6] = Caco-2 cell permeability assessment; type: in vitro ADME; settings: human, 10 µM donor
Experimental: The apparent permeability coefficient was assessed using Caco-2 cell monolayers as described previously (Katneni et al, [2018]). […] Compound flux was assessed over a period of up to 120 min, with samples taken from the acceptor chamber at multiple time points. Samples from the donor chamber were taken at the beginning and at the end of the experiment. The mass balance at the end of the permeability experiment was calculated according to the following equation, where compound mass was calculated as the product of molar concentration and volume of donor or acceptor solution: Mass balance%=Massfinal donor+Massfinal acceptor/Massinitial donorx100
The apparent permeability coefficient (Papp) was determined based on the rate of compound appearance in acceptor buffer at steady state using the following equation: Papp(cm/s)=dQ/dtx1/cinitial donorx A dQ/dt : apparent steady-state transport rate (µmol/s)
A: surface area of Caco-2 monolayer (0.3 cm^2 in the test system used)
cinitial donor : concentration in the donor at the start of experiment (µmol/cm^3).

[7] = test system: SK-MEL-2 cells; experiment: Colony formation assay, SK-MEL-2; type: cell-based, human; settings: 10 µM, 7–12 days
Experimental: Cells were seeded at low density (200–4000 cells per well) after initial optimisation in a six-well tissue culture-treated plate (Falcon). Twenty-four hours post seeding, media was replaced, and the inhibitor was added. Cells were left to grow into colonies between 7 and 12 days, depending on the cell line. For analysis, the media was removed, and the cells were fixed with 10% (w/v) formalin for 10 min. Colonies were stained with crystal violet (Sigma-Aldrich, 0.5% [w/v] in 20% [v/v] MeOH) for 10 min and washed thrice with distilled H2O. Plates were imaged using the ChemiDoc imaging system (Bio-Rad) and analysed using the ImageJ ColonyArea plugin as described previously (Guzmán et al, [2014]).

T1 sequence (Q93008 with tags, fused parts or gaps DEL1924-1943): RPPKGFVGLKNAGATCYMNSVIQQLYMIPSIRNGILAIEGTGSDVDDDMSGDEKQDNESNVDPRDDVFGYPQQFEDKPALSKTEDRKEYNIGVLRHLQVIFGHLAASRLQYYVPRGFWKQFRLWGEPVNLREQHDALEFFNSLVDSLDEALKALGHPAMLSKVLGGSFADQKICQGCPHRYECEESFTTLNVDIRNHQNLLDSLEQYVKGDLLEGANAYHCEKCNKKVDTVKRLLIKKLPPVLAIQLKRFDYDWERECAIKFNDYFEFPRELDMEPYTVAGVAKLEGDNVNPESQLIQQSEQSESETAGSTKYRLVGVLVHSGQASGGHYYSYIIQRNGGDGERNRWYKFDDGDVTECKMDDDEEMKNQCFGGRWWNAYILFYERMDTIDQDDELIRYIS

Cc1[nH]c2ccc(C(=O)N3CCN(S(=O)(=O)c4ccc5c(c4)OCCO5)CC3)cc2c1C [WEHI-092]
IC50 [1]: 0.248 µM
inhibition of USP9X in MCF-7 lysate (DUB IP-MS) [2]: inhibited all active USP9X in the lysate
cell growth, MOLT-4 [3]: stalling cell growth completely
cell killing, SR [4]: cell death
toxicity to HUVECs [5]: non-lethal and non-toxic
Papp A→B at 10 µM ([6]; Caco-2, apical-to-basolateral): 426 nm/s
Papp B→A at 10 µM ([6]; Caco-2, basolateral-to-apical): 704 nm/s
clonogenic potential, SK-MEL-2 [7]: sensitive
